Measured values published in ChEMBL document CHEMBL3832761, “MMV Pathogen Box Bioactivity Data” (2017).
Converted amounts (≈) assume the structure as drawn.

Legend:
Format in all cases: functional
[1] = tested on: Mycobacterium tuberculosis; assay: AntiMycobacterium tuberculosis activity 1-week 7H9/ADC/Tw MIC (uM); settings: 168 h
HepG2 = assay: HepG2 CC50 (uM) Cytotoxicity; settings: Homo sapiens
[2] = tested on: Mycobacterium tuberculosis; assay: AntiMycobacterium tuberculosis activity day 21 MIC99 in 7H9/2.5mM butyrate/pH6/0.1mM nitrite MIC99 (uM); settings: 504 h
[3] = tested on: Mycobacterium tuberculosis; assay: (§1) AntiMycobacterium tuberculosis activity day 10 in 7H9/2.5mM butyrate/pH6/0.1mM nitrite MIC90 (uM); settings: 240 h
[4] = tested on: Mycobacterium tuberculosis; assay: AntiMycobacterium tuberculosis activity 2-week 7H9/glucose/BSA/Tx MIC (uM); settings: 336 h
[5] = tested on: Mycobacterium tuberculosis; assay: AntiMycobacterium tuberculosis activity 1-week 7H9/glucose/BSA/Tx MIC (uM); settings: 168 h
[6] = tested on: Mycobacterium tuberculosis; assay: as §1; settings: 240 h; remark: listed apart in the source
[7] = tested on: Mycobacterium tuberculosis; assay: AntiMycobacterium tuberculosis activity Replicating form: Average MIC90 (uM)
[8] = tested on: Mycobacterium tuberculosis; assay: AntiMycobacterium tuberculosis activity 2-week 7H9/DPPC/cholesterol/BSA/Tx MIC (uM); settings: 336 h
[9] = tested on: Mycobacterium tuberculosis; assay: AntiMycobacterium tuberculosis activity 2-week 7H9/ADC/Tw MIC (uM); settings: 336 h
[10] = tested on: Mycobacterium tuberculosis; assay: AntiMycobacterium tuberculosis activity 2-week Alamar Blue 7H9/cholesterol/BSA/Tx MIC (uM); settings: 336 h
[11] = tested on: Mycobacterium tuberculosis; assay: AntiMycobacterium tuberculosis activity 2-week GAST/Fe MIC (uM); settings: 336 h
[12] = tested on: Mycobacterium tuberculosis; assay: AntiMycobacterium tuberculosis activity day 21 in 7H9/2.5mM butyrate/pH6/0.1mM nitrite MIC90 (uM); settings: 504 h
[13] = tested on: Mycobacterium tuberculosis; assay: AntiMycobacterium tuberculosis activity 2-week Alamar Blue 7H9/ADC/Tw MIC (uM); settings: 336 h
[14] = tested on: Mycobacterium tuberculosis; assay: AntiMycobacterium tuberculosis activity 1-week 7H9/DPPC/cholesterol/BSA/Tx MIC (uM); settings: 168 h
[15] = tested on: Mycobacterium tuberculosis; assay: AntiMycobacterium tuberculosis activity 1-week GAST/Fe MIC (uM); settings: 168 h
[16] = tested on: Mycobacterium tuberculosis; assay: AntiMycobacterium tuberculosis activity 1-week 7H9/cholesterol/BSA/Tx MIC (uM); settings: 168 h
[17] = tested on: Mycobacterium tuberculosis; assay: AntiMycobacterium tuberculosis activity Non-Replicating form: Average MIC90 (uM)

Compound	MIC [1]	CC50 (HepG2)	MIC [2]	MIC90 [3]	MIC [4]	MIC [5]	MIC90 [6]	MIC90 [7]	MIC [8]	MIC [9]	MIC [10]	MIC [11]	MIC90 [12]	MIC [13]	MIC [14]	MIC [15]	MIC [16]	MIC90 [17]
Cc1nc2ccccn2c1C(=O)NCc1ccc(Cl)cc1	> 50 µM	> 100 µM	> 50 µM	50 µM (≈ 15 µg/mL)	> 50 µM	25 µM (≈ 7.49 µg/mL)	> 50 µM	> 100 µM	25 µM (≈ 7.49 µg/mL)	> 50 µM	3.13 µM (≈ 0.938 µg/mL)	0.07 µM (≈ 0.021 µg/mL)	50 µM (≈ 15 µg/mL)	4.7 µM (≈ 1.41 µg/mL)	2.3 µM (≈ 0.689 µg/mL)	0.05 µM (≈ 0.015 µg/mL)	9.4 µM (≈ 2.82 µg/mL)	2 µM (≈ 0.6 µg/mL)
Cc1cccc(-c2nc(Nc3ccncn3)c3sccc3n2)n1	4.7 µM (≈ 1.51 µg/mL)	14.3 µM	6.25 µM (≈ 2 µg/mL)	3.12 µM (≈ 1 µg/mL)	> 50 µM	≥ 50 µM	6.25 µM (≈ 2 µg/mL)	2.5 µM (≈ 0.801 µg/mL)	> 50 µM	9.4 µM (≈ 3.01 µg/mL)	6.25 µM (≈ 2 µg/mL)	12.5 µM (≈ 4 µg/mL)	6.25 µM (≈ 2 µg/mL)	9.4 µM (≈ 3.01 µg/mL)	37 µM (≈ 11.9 µg/mL)	6.25 µM (≈ 2 µg/mL)	37 µM (≈ 11.9 µg/mL)	0.09 µM (≈ 0.0288 µg/mL)
CCC(Sc1nc2ccccc2o1)C(=O)Nc1nnc(C)s1 (stereo not given)	> 50 µM	> 100 µM	> 50 µM	50 µM (≈ 16.7 µg/mL)	> 50 µM	> 50 µM	> 50 µM	68.4 µM (≈ 22.9 µg/mL)	> 50 µM	> 50 µM	> 50 µM	12.5 µM (≈ 4.18 µg/mL)	50 µM (≈ 16.7 µg/mL)	> 50 µM	> 50 µM	9.4 µM (≈ 3.14 µg/mL)	> 50 µM	4.49 µM (≈ 1.5 µg/mL)
Cc1ccc(NC(=O)CC2COc3ccccc3O2)cc1Cl (stereo not given)	37 µM (≈ 11.8 µg/mL)	66.7 µM	> 50 µM	50 µM (≈ 15.9 µg/mL)	25 µM (≈ 7.94 µg/mL)	19 µM (≈ 6.04 µg/mL)	> 50 µM	53.8 µM (≈ 17.1 µg/mL)	37 µM (≈ 11.8 µg/mL)	50 µM (≈ 15.9 µg/mL)	25 µM (≈ 7.94 µg/mL)	12.5 µM (≈ 3.97 µg/mL)	50 µM (≈ 15.9 µg/mL)	50 µM (≈ 15.9 µg/mL)	19 µM (≈ 6.04 µg/mL)	9.4 µM (≈ 2.99 µg/mL)	19 µM (≈ 6.04 µg/mL)	56.9 µM (≈ 18.1 µg/mL)
CCCn1c(CNc2ccccc2O)nc2ccccc21	9.4 µM (≈ 2.64 µg/mL)	84.1 µM	> 50 µM	3.12 µM (≈ 0.878 µg/mL)	12.5 µM (≈ 3.52 µg/mL)	12.5 µM (≈ 3.52 µg/mL)	> 50 µM	12.7 µM (≈ 3.57 µg/mL)	6.25 µM (≈ 1.76 µg/mL)	9.4 µM (≈ 2.64 µg/mL)	6.25 µM (≈ 1.76 µg/mL)	1.56 µM (≈ 0.439 µg/mL)	6.25 µM (≈ 1.76 µg/mL)	6.25 µM (≈ 1.76 µg/mL)	6.25 µM (≈ 1.76 µg/mL)	1.56 µM (≈ 0.439 µg/mL)	6.25 µM (≈ 1.76 µg/mL)	7.04 µM (≈ 1.98 µg/mL)
CCOc1ccc(OCC(=O)Nc2cc(C)cc(C)c2)cc1	≥ 50 µM	> 100 µM	> 50 µM	> 50 µM	> 50 µM	50 µM (≈ 15 µg/mL)	> 50 µM	82.3 µM (≈ 24.6 µg/mL)	> 50 µM	> 50 µM	> 50 µM	4.7 µM (≈ 1.41 µg/mL)	> 50 µM	> 50 µM	50 µM (≈ 15 µg/mL)	3.13 µM (≈ 0.937 µg/mL)	50 µM (≈ 15 µg/mL)	65 µM (≈ 19.5 µg/mL)
CCc1ccc(S(=O)(=O)Nc2cc(CN3CCN(CCC(C)C)CC3)ccc2C)cc1	25 µM (≈ 11.1 µg/mL)	27.4 µM	> 50 µM	> 50 µM	25 µM (≈ 11.1 µg/mL)	25 µM (≈ 11.1 µg/mL)	> 50 µM	45.6 µM (≈ 20.2 µg/mL)	12.5 µM (≈ 5.55 µg/mL)	25 µM (≈ 11.1 µg/mL)	12.5 µM (≈ 5.55 µg/mL)	25 µM (≈ 11.1 µg/mL)	50 µM (≈ 22.2 µg/mL)	25 µM (≈ 11.1 µg/mL)	12.5 µM (≈ 5.55 µg/mL)	19 µM (≈ 8.43 µg/mL)	12.5 µM (≈ 5.55 µg/mL)	89.8 µM (≈ 39.8 µg/mL)
O=C(c1[nH]nc2c1CCCC2)N1CCN(Cc2ccc3c(c2)OCO3)CC1	> 50 µM	> 100 µM	> 50 µM	1.5 µM (≈ 0.553 µg/mL)	> 50 µM	37 µM (≈ 13.6 µg/mL)	> 50 µM	> 100 µM	19 µM (≈ 7 µg/mL)	> 50 µM	1.56 µM (≈ 0.575 µg/mL)	0.78 µM (≈ 0.287 µg/mL)	6.25 µM (≈ 2.3 µg/mL)	4.7 µM (≈ 1.73 µg/mL)	4.7 µM (≈ 1.73 µg/mL)	0.39 µM (≈ 0.144 µg/mL)	0.78 µM (≈ 0.287 µg/mL)	> 15.5 µM
CCOC(=O)c1cc(-c2csc(Nc3c(C)cc(C)cc3C)n2)on1	4.7 µM (≈ 1.68 µg/mL)	24.4 µM	6.25 µM (≈ 2.23 µg/mL)	3.1 µM (≈ 1.11 µg/mL)	4.7 µM (≈ 1.68 µg/mL)	3.13 µM (≈ 1.12 µg/mL)	6.25 µM (≈ 2.23 µg/mL)	17.5 µM (≈ 6.26 µg/mL)	6.25 µM (≈ 2.23 µg/mL)	9.4 µM (≈ 3.36 µg/mL)	3.13 µM (≈ 1.12 µg/mL)	12.5 µM (≈ 4.47 µg/mL)	6.25 µM (≈ 2.23 µg/mL)	6.25 µM (≈ 2.23 µg/mL)	3.13 µM (≈ 1.12 µg/mL)	12.5 µM (≈ 4.47 µg/mL)	1.56 µM (≈ 0.558 µg/mL)	13.8 µM (≈ 4.94 µg/mL)
CC1COC2(CCN(c3nc(=O)c4cc(C(F)(F)F)cc([N+](=O)[O-])c4s3)CC2)O1 (stereo not given)	< 0.02 µM	> 100 µM	≤ 0.04 µM	≤ 0.04 µM	< 0.02 µM	< 0.02 µM	≤ 0.04 µM	< 0.01 µM	< 0.02 µM	< 0.02 µM	< 0.02 µM	< 0.02 µM	≤ 0.04 µM	< 0.02 µM	< 0.02 µM	< 0.02 µM	< 0.02 µM	< 0.01 µM
